Measurements published in the Kinase Knowledgebase extract (Sharma et al. 2016).

molecular target: MAPK14 (UniProt Q16539); assay: Inhibition of MAPK14 Kinase Activity
Sequence (Q16539 whole entry, looked up): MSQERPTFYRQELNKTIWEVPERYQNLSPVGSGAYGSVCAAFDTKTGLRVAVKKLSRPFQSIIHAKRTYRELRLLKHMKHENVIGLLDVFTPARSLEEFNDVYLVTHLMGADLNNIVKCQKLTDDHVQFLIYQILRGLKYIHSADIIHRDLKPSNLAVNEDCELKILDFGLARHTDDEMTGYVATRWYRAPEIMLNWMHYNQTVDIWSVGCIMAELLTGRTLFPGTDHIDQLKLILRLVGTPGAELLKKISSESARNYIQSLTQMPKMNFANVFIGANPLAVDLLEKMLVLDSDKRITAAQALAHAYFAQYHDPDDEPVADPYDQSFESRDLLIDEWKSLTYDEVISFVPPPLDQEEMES

IC50, < 20 µM:
Cc1cccc(-c2nn3c(c2-c2ccnc4cc(N)ccc24)CCC3)n1
CSc1ccc2nccc(-c3c(-c4ccccn4)nn4c3CCC4)c2c1
OCCCSc1ccc2c(-c3c(-c4ccccn4)nn4c3CCC4)ccnc2c1
Cc1cccc(-c2nn3c(c2-c2ccc4c(c2)OCO4)CCC3)n1
CN1CCN(CCCOc2ccc3c(-c4c(-c5ccccn5)nn5c4CCC5)ccnc3c2)CC1
c1ccc(-c2nn3c(c2-c2ccc4ccccc4c2)CCC3)nc1
COc1ccc2c(-c3c(-c4ccccn4)nn4c3CCC4)ccnc2c1
Cc1cccc(-c2nn3c(c2-c2ccnc4ccc(-c5ccc(F)cc5)cc24)CCC3)n1
Fc1ccc(-c2nn3c(c2-c2ccnc4ccccc24)CCC3)cc1
O=C(NCCc1c[nH]cn1)c1ccc2c(-c3c(-c4ccccn4)nn4c3CCC4)ccnc2c1
CNC(=O)c1ccc2c(-c3c(-c4ccccn4)nn4c3CCC4)ccnc2c1
Cc1cccc(-c2nn3c(c2-c2ccnc4ccc(C(=O)O)cc24)CCC3)n1
Cc1cccc(-c2nn3c(c2-c2ccc(F)cc2)CC[C@@H]3CC#N)n1
CN(C)CC(=O)Nc1ccc2c(-c3c(-c4ccccn4)nn4c3CCC4)ccnc2c1
COC(=O)c1ccc2c(-c3c(-c4ccccn4)nn4c3CCC4)ccnc2c1
c1ccc(-c2nn3c(c2-c2ccnc4cc(OCCCn5ccnc5)ccc24)CCC3)nc1
